From US9302012B2, “Anti-bacterial siderophore-aminopenicillin conjugates” (University of Notre Dame Du Lac, priority 2012, dated 2016)
≈ marks a conversion by molar mass, not a printed value. Where two headings read alike, the source gives them in different places.

What was measured:
P. aeruginosa Pa6 = assay: MIC90 by broth microdilution assay; type: cell-based, Pseudomonas aeruginosa; details: for MIC90: P. aeruginosa Pa6, 37° C., 20 h; for activity against Pa6 (MIC assay, in words): exception among wild type strains
Protocol: (§1) ^aMIC90 values (μM) were determined using the broth microdilution method in Mueller-Hinton broth No. 2 (MHII) with visual end point analysis according to the CLSI guidelines (Methods for Dilution Antimicrobial Susceptibility Tests for Bacteria that Grow Aerobically, 8th ed. (Villanova, Pa., USA), Clinical and Laboratory Standards Institute (CLSI), 2009, approved standard document M07-A7). ^bEach compound was tested in triplicate.
(§2) All liquids and media were sterilized by autoclaving (121° C., 15 min) before use. All aqueous solutions and media were prepared using distilled, deionized, and filtered water (Millipore Milli-Q Advantage A10 Water Purification System). Luria broth (LB) was purchased from VWR. Mueller-Hinton No. 2 broth (MHII broth; cation adjusted) was purchased from Sigma-Aldrich (St. Louis, Mo.). Iron-deficient (—Fe) MHII broth was prepared by adding 0.8 mL of a 1 mg/mL sterile aq. solution of 2,2′-bipyridine to 49.2 mL of MHII broth. Iron-rich (+Fe) MHII broth was prepared by adding 0.8 mL of a 1 mg/mL sterile aq. solution of FeCl3 to 49.2 mL of MHII broth. Mueller-Hinton No. 2 agar (MHII agar; HiMedia Laboratories) was purchased from VWR. Iron-deficient (−Fe) MHII agar was prepared by adding 0.5 mL of a 1 mg/mL sterile aq. solution of 2,2′-bipyridine to 34 mL of melted MHII agar with gentle mixing. Iron-rich (+Fe) MHII agar was prepared by adding 0.5 mL of a 1 mg/mL sterile aq. solution of FeCl3 to 34 mL of melted MHII agar with gentle mixing. See also Wencewicz, T. A. Dissertation, University of Notre Dame, Notre Dame, Ind., 2011, for relevant techniques.
(§3) Determination of MIC90 Values by the Broth Microdilution Assay.
(§4) Antibacterial activity of the compounds was determined by measuring their minimum inhibitory concentrations (MIC90's) using the broth microdilution method according to the Clinical and Laboratory Standards Institute (CLSI, formerly the NCCLS) guidelines. Each well of a 96-well microtiter plate was filled with 50 μL of sterile broth media (−Fe or +Fe). Each test compound was dissolved in DMSO making a 20 mM solution, and then diluted with sterile broth media (−Fe or +Fe) to 400 or 800 μM. Exactly 50 μL of the compound solution was added to the first well of the microtiter plate and 2-fold serial dilutions were made down each row of the plate. Exactly 50 μL of bacterial inoculum (5×10^5 CFU/mL in broth media) was then added to each well giving a total volume of 100 μL/well. The plate was incubated at 37° C. for 20 h and then each well was examined for bacterial growth. The MIC90 was recorded as the lowest compound concentration (μM) required to inhibit 90% of bacterial growth as judged by turbidity of the culture media relative to a row of wells filled with a DMSO standard.

[1] = system: K. pneumoniae ATCC 8303 X68; assay: MIC90 by broth microdilution assay; type: cell-based; details: Klebsiella pneumoniae; for MIC90: ATCC8303, 20 h, K. pneumoniae ATCC 8303 X68, 37° C., 20 h; for MIC: ATCC8303, stated as inactive, read-out: MIC against K. pneumoniae
Protocol: as §1, §2, §3, §4

P. aeruginosa Pa4 = assay: MIC90 by broth microdilution assay; type: cell-based; details: Pseudomonas aeruginosa, PA4, 20 h, 37° C.
Protocol: as §1, §2, §3, §4

P. aeruginosa PAO1 = assay: MIC90 by broth microdilution assay; type: cell-based; details: Pseudomonas aeruginosa, PAO1, 20 h, 37° C.
Protocol: as §1, §2, §3, §4

P. aeruginosa KW799/61 [2] = assay: MIC90 by broth microdilution assay; type: cell-based; details: Pseudomonas aeruginosa, KW799/61, 20 h
Protocol: as §1, §2, §3, §4

P. aeruginosa KW799/wt = assay: MIC90 by broth microdilution assay; type: cell-based; details: Pseudomonas aeruginosa, 20 h, 37° C.
Protocol: as §1, §2, §3, §4

P. aeruginosa KW799/61 [3] = assay: microbe, parasite or virus in culture; type: cell-based, Pseudomonas aeruginosa; details: for Diameter of growth inhibition zones: P. aeruginosa KW799/61
Protocol: as §2, with “All” for “All liquids and media were sterilized by autoclaving (121° C., 15 min) before use. All”, “mixing.” for “mixing. See also Wencewicz, T. A. Dissertation, University of Notre Dame, Notre Dame, Ind., 2011, for relevant techniques.”
Antibacterial Susceptibility Testing by the Agar Diffusion Assay.
Antibacterial activity of the compounds was determined by a modified Kirby-Bauer agar diffusion assay. Overnight cultures of test organisms were grown in LB broth for 18-24 h and standard suspensions of […] were prepared in saline solution (0.9% NaCl) according to a 0.5 BaSO4 McFarland Standard. This standardized suspension (0.1 mL) was added to 34 mL of sterile, melted agar (−Fe or +Fe) tempered to 47-50° C. […] Wells of 9.0 mm diameter were cut from the petri dish agar and filled with exactly 50 μL of the test sample solution. The petri dish was incubated at 37° C. for 18-24 h and the inhibition zone diameters were measured (mm) with an electronic caliper after 24 h.

[4] = −Fe (iron-deficient) MHII broth
[5] = Pseudomonas aeruginosa, +Fe (iron-rich) MHII broth
[6] = read-out: MIC (MIC90), P. aeruginosa KW799/61, +Fe (iron-rich) MHII broth, 37° C.
[7] = read-out: MIC (MIC90), P. aeruginosa KW799/61, −Fe (iron-deficient) MHII broth, 37° C.
[8] = Pseudomonas aeruginosa, KW799/61, 24 h, read-out: Diameter of growth inhibition zones, P. aeruginosa KW799/61, +Fe agar, 50 μL of 0.2 mM solution, 37° C., 24 hours
[9] = Pseudomonas aeruginosa, KW799/61, 24 h, read-out: Diameter of growth inhibition zones, P. aeruginosa KW799/61, −Fe agar, 50 μL of 0.2 mM solution, 37° C., 24 hours

Compound | MIC90 (P. aeruginosa Pa6; [4]) | MIC90 (P. aeruginosa Pa6; [5]) | MIC90 ([1]; +Fe (iron-rich) MHII broth) | MIC90 [1, 4] | MIC90 (P. aeruginosa Pa4; +Fe (iron-rich) MHII broth) | MIC90 (P. aeruginosa Pa4; [4]) | MIC90 (P. aeruginosa PAO1; +Fe (iron-rich) MHII broth) | MIC90 (P. aeruginosa PAO1; [4]) | MIC90 (P. aeruginosa KW799/61 [2]; [6]) | MIC90 (P. aeruginosa KW799/61 [2]; [7]) | MIC90 (P. aeruginosa KW799/wt; +Fe (iron-rich) MHII broth) | MIC90 (P. aeruginosa KW799/wt; [4]) | activity against permeable mutant (large zones of inhibition, in words) (P. aeruginosa KW799/61 [3]; P. aeruginosa permeable mutant K799/61) | zone of inhibition at 200 µM (P. aeruginosa KW799/61 [3]; [8]) | zone of inhibition at 200 µM (P. aeruginosa KW799/61 [3]; [9]) | activity against Pa6 (MIC assay, in words) (P. aeruginosa Pa6) | MIC [1] | Diameter of growth inhibition zones (P. aeruginosa KW799/61 [3]; +Fe agar, 50 μL of 0.1 mM solution, 37° C., 24 hours) | zone of inhibition at 100 µM (P. aeruginosa KW799/61 [3]; Pseudomonas aeruginosa, KW799/61, 24 h, read-out: Diameter of growth inhibition zones, P. aeruginosa KW799/61, −Fe agar, 50 μL of 0.1 mM solution, 37° C., 24 hours) | Diameter of growth inhibition zones (P. aeruginosa KW799/61 [3]; +Fe agar, 50 μL of 0.2 mM solution, 37° C., 24 hours)
CC1(C)S[C@@H]2[C@H](NC(=O)[C@H](N)c3ccc(O)cc3)C(=O)N2[C@H]1C(=O)O [Amoxicillin, reference compound] | >200 µM | > 200 µM | 100 µM (≈ 36.5 µg/mL) | > 100 µM | > 200 µM | > 100 µM | > 200 µM | > 100 µM | 0.46 µM (≈ 0.168 µg/mL) | 0.39 µM (≈ 0.143 µg/mL) | > 200 µM | > 200 µM | highly active | 42 mm | 39 mm |  |  |  |  | 
CC1(C)S[C@@H]2[C@H](NC(=O)[C@H](N)c3ccccc3)C(=O)N2[C@H]1C(=O)O [Ampicillin, reference compound] | >200 µM | > 200 µM | > 200 µM | > 100 µM | > 200 µM | > 100 µM | > 200 µM | > 100 µM | 0.52 µM (≈ 0.182 µg/mL) | 0.78 µM (≈ 0.273 µg/mL) | > 200 µM | > 200 µM |  | 40 mm | 40 mm |  |  |  |  | 
CC(=O)Oc1cccc(C(=O)NCCCC(CCCNC(=O)c2cccc(OC(C)=O)c2OC(C)=O)(CCCNC(=O)c2cccc(OC(C)=O)c2OC(C)=O)NC(=O)CCC(=O)NC(C(=O)NC2C(=O)N3C2SC(C)(C)C3C(=O)O)c2ccccc2)c1OC(C)=O (stereo not shown) [Compound 10] | >200 µM | > 200 µM | > 200 µM | > 100 µM | 25 µM (≈ 32.4 µg/mL) | 0.39 µM (≈ 0.505 µg/mL) | 50 µM (≈ 64.7 µg/mL) | 0.39 µM (≈ 0.505 µg/mL) | 12.5 µM (≈ 16.2 µg/mL) | 0.067 µM (≈ 0.0867 µg/mL) | 33 µM (≈ 42.7 µg/mL) | 0.05 µM (≈ 0.0647 µg/mL) |  |  |  | inactive | > 100 µM | 13P | 21 mm | 
CC(=O)Oc1cccc(C(=O)NCCCC(CCCNC(=O)c2cccc(OC(C)=O)c2OC(C)=O)(CCCNC(=O)c2cccc(OC(C)=O)c2OC(C)=O)NC(=O)CCC(=O)NC(C(=O)NC2C(=O)N3C2SC(C)(C)C3C(=O)O)c2ccc(O)cc2)c1OC(C)=O (stereo not shown) [Compound 11] | >200 µM | > 200 µM | > 200 µM | > 100 µM | 25 µM (≈ 32.8 µg/mL) | 0.21 µM (≈ 0.275 µg/mL) | 50 µM (≈ 65.5 µg/mL) | 0.39 µM (≈ 0.511 µg/mL) | 12.5 µM (≈ 16.4 µg/mL) | 0.083 µM (≈ 0.109 µg/mL) | 25 µM (≈ 32.8 µg/mL) | 0.05 µM (≈ 0.0655 µg/mL) |  |  | 26 mm | inactive | > 100 µM |  |  | 13P
